Assay results: ChEMBL document CHEMBL3507680, “University of Dundee, Gates Library screen for HepG2 cell viability”

Assay: Human HepG2 cell viability assay in 384 well format
Format: toxicity, cell-based
Parameters: dose 125 nL, time 70.5 hour; concentration not given beside the values
Conditions: HepG2 cells, read-out: Inhibition

| Structure (SMILES) | cytotoxicity at 70.5 h [%] |
| --- | --- |
| Cc1cc(C(=O)N2Cc3ccccc3OC3(CCOCC3)C2)nc(N)n1 | -4.81 |
| O=C(c1ccco1)N1CCCC(c2cc(C(F)F)n3ncnc3n2)C1 (stereo not drawn) | -14.3 |
| O=C(c1cncc(Br)c1)N1CCC(O)(Cn2ccc3ccncc32)CC1 | -13.2 |
| O=C(O)C1(Cc2cc(-c3cccc(F)c3)no2)CCOCC1 | -24 |
| O=C(c1cnco1)N1C[C@@H]2CC[C@H](Oc3ccccc3F)[C@@H]2C1 | 40.3 |
| O=C(c1ccnnc1)N1C[C@@H]2CC[C@H](Oc3cccc(F)c3)[C@@H]2C1 | -0.575 |
| COCCN1C(=O)CO[C@H]2CN(Cc3c[nH]nc3-c3ccccc3)C[C@@H]21 | -9.3 |
| COc1ccc(CN2CC[C@H](NC(C)=O)[C@@H](O)CC2)c(OC)c1 | -17.2 |
| Cc1noc(C)c1-c1cncc(C2CCCN2Cc2ccncc2)n1 (stereo not drawn) | -16.4 |
| NCCn1nc(C2CCN(Cc3ccc(Cl)c(Cl)c3)C2)c2nccnc21 (stereo not drawn) | -4.77 |
| CNC(=O)C1(CCCc2ccncc2)CCCN1 (stereo not drawn) | -7.77 |
| CN(C)c1cncc(C2CCN(CCO)CC2)n1 | -8.74 |
| COc1cc(CN2CC[C@@]3(CCCO3)[C@@H](O)C2)ccc1F | -7.93 |
| CN1CCN(C(=O)c2cncc(CC3CCCN(C)C3)c2)CC1 (stereo not drawn) | 24.9 |
| Cc1noc(C)c1-c1cnc(CC2CCN(C(=O)c3cc[nH]n3)C2)cn1 (stereo not drawn) | -12 |
| Cc1cc(C(F)(F)F)c2c(C3CCN(S(=O)(=O)N(C)C)CC3)noc2n1 | -9.87 |
| CC(C)(C)C(=O)N1CCCC1c1nc(O)cc(-c2ccccn2)n1 (stereo not drawn) | -8.73 |
| O=C(CC1CCCC1)N1CCCC1c1nc(O)cc(-c2ccccn2)n1 (stereo not drawn) | -1.16 |
| Cc1oc(C(=O)Nc2ccccc2F)cc1S(N)(=O)=O | -10.9 |
| CCN(CC(C)C#N)C(=O)CNc1ccc(F)c(C)c1 (stereo not drawn) | 0.826 |
| Cc1cccc(C)c1NC(=O)c1cc(S(N)(=O)=O)c(C)o1 | 20.8 |
| CCS(=O)(=O)CC(=O)Nc1cc(-c2cccc(F)c2F)n[nH]1 | -9.86 |
| O=c1n(CCNc2cccc3ccccc23)nc2ccccn12 | 4.9 |
| O=C(c1ccoc1)N1CCC(O)(C(F)(F)F)CC1 | -12.1 |

| Structure (SMILES) | cytotoxicity at 70.5 h [%] |
| --- | --- |
| CCOCC(=O)N(C)Cc1nc(C(F)(F)F)cs1 | 20.5 |
| CCN(CC(C)C#N)C(=O)CNc1ccc(C(N)=O)c(C)c1 (stereo not drawn) | -1.05 |
| COc1ccccc1OCCNS(=O)(=O)N1CCOCC1 | -11.3 |
| CC(C)c1nn(C)c(Cl)c1CNCCn1cccn1 | 8.25 |
| CCOc1nnc(CN2CCN(CCOC)CC2)s1 | 16.4 |
| COCCN1CCN(CC2CCCCO2)CC1 (stereo not drawn) | 38.7 |
| COc1ccc(C(C)=O)cc1CN1CCn2cccc2C1C (stereo not drawn) | -6.89 |
| CC(=O)c1cccc(NC(=O)N(CC(F)F)C2CC2)c1 | 19.6 |
| CCN(CC)S(=O)(=O)c1ccc(CNC(=O)N2CCCCCC2)cc1 | -7.35 |
| Cc1cccc(C)c1OCCCN1CCN(CC2CCCO2)CC1 (stereo not drawn) | 18.9 |
| COc1ccc(C2(C(=O)NC3CCc4nccn4C3)CCCC2)cc1 (stereo not drawn) | -3 |
| CS(=O)(=O)C1(C(=O)NC2CCc3nccn3C2)CCCC1 (stereo not drawn) | -4.12 |
| Cc1cc(NC(=O)NCc2nccn2C)ccc1OC(C)C | -6.18 |
| Cc1ccc(Br)cc1S(=O)(=O)NCCc1nnc[nH]1 | 11.5 |
| COc1cc(C(=O)NS(=O)(=O)c2cc(Cl)sc2Cl)ccc1OC(F)F | -5.6 |
| COc1ccc(C(=O)NS(=O)(=O)c2cc(Cl)sc2Cl)cc1OC(F)F | -3.93 |
| COCCCOc1ccc(C(=O)N(C)CCC(C)C)cn1 | 20.8 |
| Cc1cnn(CCNCc2c(C)nn(C)c2Cl)c1 | -4.35 |
| COC(=O)CNC(=O)CCc1cc(Cl)cs1 | 6.93 |
| COC(=O)CNC(=O)CCc1cc(Br)cs1 | -3.56 |
| CCc1nc(CN(C)C(=O)c2ccc(OCCCOC)nc2)cs1 | -7.45 |
| CN(Cc1cnn(C)c1)C(=O)C(c1ccccc1)N1CCSCC1 (stereo not drawn) | -9.84 |
| COc1ccc(C(C)NCCC(N)=O)cc1F (stereo not drawn) | 1.06 |
| O=C(NCc1nnc2n1CCC2)c1ccc(Br)s1 | -5.66 |

| Structure (SMILES) | cytotoxicity at 70.5 h [%] |
| --- | --- |
| COC(=O)c1ccoc1CN(C)CC(=O)NC1CC1 | -5.08 |
| COC(=O)c1ccoc1CN(C)CC(=O)NC1CCS(=O)(=O)C1 (stereo not drawn) | 3.53 |
| CNC(=O)CN(C)C(=O)c1ccc(-c2nc(C)cs2)cc1 | -5.78 |
| CC(NS(N)(=O)=O)c1ccc(OCc2ccc(F)cc2)cc1 (stereo not drawn) | -0.493 |
| COc1ccc(N2CCC(NC(=O)c3sccc3C)CC2)cc1 | 18.3 |
| CN1CCC(NC(=O)c2cc(Br)cc(Cl)c2O)C1=O (stereo not drawn) | -1.22 |
| CC(C)OCCN1CCC(Nc2ncc(Br)cn2)CC1 | -7.14 |
| CNC(=O)c1cc(NC(=O)Nc2cnn(CC(C)C)c2)ccc1F | -4.7 |
| Cc1cccc(COc2ccc(C(C)NC(=O)CNC(N)=O)cc2)c1 (stereo not drawn) | -0.269 |
| O=C(C1CCCOC1)N1CCN(CC(F)(F)F)c2ccccc21 (stereo not drawn) | -1.7 |
| O=C(C1COCCO1)N1CCN(CC(F)(F)F)c2ccccc21 (stereo not drawn) | -1.12 |
| CN1CCC(NC(=O)c2cc(F)cc(Cl)c2O)C1=O (stereo not drawn) | -2.94 |
| COC(=O)CC1CCCCN1CC(=O)NCCc1ccc(F)cc1 (stereo not drawn) | 1.06 |
| COC(=O)CC1CCCCN1CC(=O)Nc1ccc(F)cc1Cl (stereo not drawn) | 21.6 |
| COC(=O)c1ccoc1CN(C1CC1)C1CCS(=O)(=O)C1 (stereo not drawn) | -0.821 |
| COC(=O)CC1CCCCN1CC(=O)Nc1cc(F)ccc1F (stereo not drawn) | -4.9 |
| CCCS(=O)(=O)NCc1ncc(C)c(OC)c1C | 9.44 |
| CC1CN(c2ncnc3sccc23)CCN1c1nccs1 (stereo not drawn) | -0.696 |
| CC1CCN(C(=O)CCN2Cc3ccccc3C[C@H]2C(N)=O)C1 (stereo partly drawn) | -6.72 |
| COC(=O)C1CN(Cc2ccn(-c3ccc(F)cc3)n2)CCO1 (stereo not drawn) | 5.92 |
| CC(C)(C)c1noc(CCC(=O)N2CCNC(=O)C2)n1 | 7.96 |
| COc1ccc2c(c1)CCCC2CC(=O)O (stereo not drawn) | -19.3 |
| Cc1cc(C(=O)N2CCNC(=O)C2)c(C)n1CC(F)(F)F | 26.8 |
| Cc1cc(CNc2cccc(C(=O)N(C)c3ccccc3)c2)no1 | -0.804 |

| Structure (SMILES) | cytotoxicity at 70.5 h [%] |
| --- | --- |
| O=C(Cc1cccs1)NCC1(O)CCSCC1 | -3.88 |
| CS(=O)(=O)CCCC(=O)Nc1cc(Cl)c(Cl)cn1 | 0.966 |
| CS(=O)(=O)CCC(=O)Nc1cc(Cl)c(Cl)cn1 | 26.6 |
| COCCCC(=O)Nc1cc(Cl)c(Cl)cn1 | 24.5 |
| O=C(OC1CCC1)c1ncccc1OCC(F)(F)F | 15.8 |
| CS(=O)(=O)NC(=O)c1cnc2c(cnn2C2CCCC2)c1 | -4.29 |
| Cc1ccnc(C(NC(=O)c2oc(C)nc2C)C2CC2)n1 (stereo not drawn) | -3.47 |
| CN(C)CCCNC(=O)c1ccnc(OCc2ccccc2)c1 | -1.38 |
| CCn1cc(S(=O)(=O)NCC(OC)c2cccc(Cl)c2)cn1 (stereo not drawn) | -6.64 |
| O=C(OC1CCC1)c1ncccc1C(F)(F)F | -3.86 |
| Cc1csc(CCNC(=O)C2CCOC2)n1 (stereo not drawn) | -2.45 |
| Cc1cnn(CCNCC(O)COc2cccc(C(F)(F)F)c2)c1 (stereo not drawn) | 0.0235 |
| COc1ccc(CCNC(=O)C(C)Nc2cc(C)ccc2C)cc1 (stereo not drawn) | -8.81 |
| O=C(c1sccc1C1CC1)N1CCN(c2nccs2)CC1 | 6.38 |
| CC(NC(=O)CNS(C)(=O)=O)c1ccccc1Oc1ccccc1 (stereo not drawn) | -7.15 |
| CCS(=O)(=O)CC(=O)NC(C)c1ccccc1Oc1ccccc1 (stereo not drawn) | 2.99 |
| CC(C)(C)c1cnc(CN2CCC(CN3CCOCC3)CC2)o1 | 22.6 |
| CC(C)(O)CN1CCN(C(=O)c2cccn2Cc2ccccc2)CC1 | -6.76 |
| CC(NC(=O)CSCC(N)=O)c1ccccc1Oc1ccccc1 (stereo not drawn) | 16.5 |
| CN(C)c1ccccc1CN1CCC(N2CCCC2=O)CC1 | 17.8 |
| Cc1cc(F)cc2c(N3CCS(=O)(=O)CC3)c(C#N)cnc12 | 0.465 |
| COc1cc2c(cc1CNC(=O)Cc1cc(C)on1)OC(C)C2 (stereo not drawn) | -8.66 |
| CC(=O)Nc1ccc(CNc2cccc(OCCF)c2)cc1 | -5.76 |
| COCc1nc(CNc2cc(C)on2)cs1 | -3.59 |

| Structure (SMILES) | cytotoxicity at 70.5 h [%] |
| --- | --- |
| Cc1cc(NCc2csc(C)n2)no1 | -4.29 |
| CC(C)OCCC(=O)N1CCN(CC(O)c2ccccc2)CC1 (stereo not drawn) | -1.62 |
| O=C(c1ccc(-n2cccc2)c(F)c1)N1CCCN2CCCC2C1 (stereo not drawn) | 8.53 |
| CCOc1cncc(N2CCOCC2)n1 | -7.42 |
| CCc1nc(CN2CC(C(=O)OC)O[C@H](C)C2)cs1 (stereo partly drawn) | -8.81 |
| CCc1nc2c(s1)C(N(C)C(=O)c1cc[nH]n1)CCC2 (stereo not drawn) | -10.2 |
| CC(O)CN1CCN(C(=O)c2cccn2Cc2cccnc2)CC1 (stereo not drawn) | -11.4 |
| Cc1ncsc1C(=O)NCCNC(=O)OC(C)(C)C | -2.69 |
| O=C(Nc1ccc2c(ccn2CCN2CCOCC2)c1)c1ccncc1 | -1.62 |
| CC(C)C1CCCN1CC(=O)NCc1ccc(OCC(N)=O)cc1 (stereo not drawn) | 2.47 |
| NC(=O)CNC1(c2ccc(Br)cc2)CCOCC1 | 22.4 |
| COC1CCN(CC(=O)NCc2ccc(OCC(N)=O)cc2)CC1 | 0.0627 |
| Cc1nn(C)c(N2CCCN(C)CC2)c1CNC(=O)CC(C)(C)C | 3.8 |
| COc1ccc(OCc2sc(C3(O)CCCNCC3)nc2C)cc1 (stereo not drawn) | -10.3 |
| NCC(=O)N1CCCC(c2cncc(Nc3ncccn3)n2)C1 (stereo not drawn) | -13.9 |
| CCN1CCN(Cc2ccnc(-c3cccnc3)n2)CC1 | -2.52 |
| Cc1ccc(CN(Cc2c[nH]cn2)C2CC(C)(C)NC(C)(C)C2)o1 | -9.95 |
| O[C@@]1(c2ccccn2)CC[C@H]2CN(Cc3cccc(Cl)c3Cl)C[C@H]21 | -10.2 |
| COc1ccc(CN2C[C@H]3CC[C@](O)(c4ccc(C)cn4)[C@H]3C2)c(F)c1 | -0.817 |
| c1cncc(-c2nccc(CN3CCCC3)n2)c1 | 3.79 |
| Cc1ccc([C@]2(O)CC[C@H]3CN(Cc4cccc(Cl)c4Cl)C[C@H]32)nc1 | 22.9 |
| CCN(CC)C(=O)c1cc(C2CCCN2C)ccn1 (stereo not drawn) | 4.19 |
